Reference: US20050147608A1, “Novel regulatory mechanisms of NF-kappaB” (Beth Israel Deaconess Medical Center, Inc., priority 2003, published 2005)
Where a SMILES comes first, the peptide text is derived from it. The star is where a group is joined. Cbz = O=C(OCc1ccccc1)*

Assays:
NF-κB = test: NF-κB-Luc gene reporter assay in breast cancer cell lines after Pin1 inhibition; format: cell-based; settings: BT20 (ER-negative) and MCF-7 (ER-positive) cells, both cell lines; 48 hrs after transfection
Text: (C) Inhibition of NF-κB activation and NF-κB DNA binding activity in breast cancer cell lines by downregulation of Pin 1. Two breast cancer cell lines were transfected with Pin1-specific or non-specific siRNA together with a NF-kB-Luc or TK-Luc reporter construct for 48 hrs, followed by assaying luciferase activity and Pin1 protein levels (insets) (C) or assaying NF-κB DNA binding activity by EMSA using NF-κB or OCT1 consensus oligonucleotides (D).
Approximately 60% confluent cells were transfected in triplicate in 12 well dishes with Effectene (Qiagen). Gene reporter assays were performed with Dual-Luciferase reporter assay system (Promega) at 24-36 hr after transfection as described previously (Wulf et al., 2001). pRL-TK (Promega) was used as an internal control for transfection efficiency. All results are expressed as X±SD of independent triplicate cultures. For gene reporter assays in breast cancer cell line, cells were transfected with pSuppressor Neo vector encoding Pin1 specific siRNA (5′-[…]-3′) or non-specific siRNA (5′-[…]-3′) together with Ig-kB luciferase construct and pRL-TK. After 48 hr, cells were lysed and subjected to gene reporter assay.
Given that the NF-κB activation is regulated by a series of phosphorylation events, it was investigated whether Pin1 is involved in this regulation. […]

p65-T254A [1] = test: Protein degradation assay (cycloheximide chase, immunoblot) of p65-T254A in 293T cells; format: cell-based; set-up: dose or concentration left out as unconfirmed
Procedure: (A, B) Stabilization of p65-T254A by a proteosome inhibitor. 293T cells expressing Xpress-p65-T254A or Xpress-LacZ were treated with cycloheximide and MG-132 ([…]) or the solvent DMSO for the times indicated, followed by immunoblot with anti-Xpress antibody (A), followed by semi-quantification with Imagequant (B). (C) Ubiquitination of p65 in vitro. In vitro translated 35 S-labeled p65 was incubated with ubiquitin in the presence or absence of E1 and UbcH5a for times indicated, followed by separation on SDS-PAGE and autoradiography. (D) Ubiquitination of the GST-p65 fragment B, but A or C. GST-p65 truncation mutants (FIG. 3D) were incubated with HeLa S-100 extracts, ubiquitin, E1 and either UbcH5a or UbcH6 for 3 hrs, followed by GST pulldown and immunoblotting with anti-ubiquitin antibody. (E) Ubiquitination of GST-p65 fragment B via UbcH5a. GST-p65-truncated mutant B was subjected to ubiquitination assay in vitro using different E2 enzymes.
293T cells were transfected with Xpress-tagged p65. A plasmid encoding Xpress-LacZ was used as a transfection control. […] Cells were harvested at each time points, and total lysates were analyzed by immunoblotting with anti-Xpress antibody (Invitrogene). The blots were scanned and semi-quantified by using the software NIH image 1.6.2, as described (Ryo et al., 2001). […]

p65 [2] = test: p65 protein stability in Pin1−/− MEFs; format: cell-based, mouse
Text: The ability of Pin1 to regulate the protein stability of p65 led to another surprising finding in this study, which is the ubiquitin-mediated proteolysis of p65. Although the ubiquitin-mediated proteolysis of IkBα has been well characterized (Baeuerle and Baltimore, 1996; Ghosh et al., 1998), a similar regulation has not been previously described for NF-kB itself. […] Furthermore, even in Pin1+/+ cells, the point mutation in p65 (T254A) that disrupts its binding to Pin1 converts p65 from a stable into an extremely unstable protein due to rapid nuclear export and subsequent protein degradation.

p65 [3] = test: In vivo ubiquitination assay of p65 in HeLa cells (His-ubiquitin, Ni-agarose pulldown); format: cell-based; settings: His-tagged ubiquitin, MG-132 for 16 hr
Procedure: (F) Ubiquitination of p65 in vivo. HeLa cells expressing p65, UbcH5a and His-tagged ubiquitin or vector controls were treated with MG-132 or DMSO control for 16 hr, followed by lysis using sonication in a buffer containing 6M urea. Ubiquitin-conjugated proteins were captured with […] beads and subjected to immunoblot with anti-p65 antibody.
To examine which region of the p65 molecule can be ubiquitinated, different GST-p65 fragments (FIG. 3D) were incubated with S100 HeLa cells extracts, ubiquitin, E1 and UbcH5a or UbcH6, and then purified GST-p65 fragments using GST beads, followed by immunoblot with anti-ubiquitin antibodies. Although neither the fragment A nor C was ubiquitinated, fragment B, which contains the Pin1 binding Thr254-pro motif (FIG. 3E), was poly-ubiquitinated with UbcH5a, but not with UbcH6 (FIG. 6D). To examine whether other E2 enzymes could catalyze the ubiquitination of p65 in vitro, we incubated recombinant GST-p65 fragment B with in vitro ubiquitination assay using different E2 enzymes. Out of the 8 E2 enzymes examined, only UbcH5a effectively conjugated multiple ubiquitin molecules into p65 (FIG. 6E). […] However, no ubiquitinated p65 was detected in the absence of His ubiquitin and/or MG-132 (FIG. 6F), indicating the specificity of the in vivo ubiquitination assay.

p65-T254A [4] = test: Co-immunoprecipitation of Pin1 with Xpress-tagged p65-T254A in 293T cells after proteasome inhibition; format: cell-based; settings: 20 μM MG-132 for 12 hr
Procedure: (G) Failure of Pin1 to bind p65-T254A. 293T cells were co-transfected with Pin1 and Xpress-tagged p65 or its T254A mutant. After cells were incubated with 20 μM MG-132 for 12 hr, they were subjected to immunoprecipitation analysis with anti-Xpress antibody, followed by immunoblot with anti-p65 or anti-Pin1 antibodies.
(§1) Cells were arrested at the G1/S phase or the mitotic phase, as describe previously. Total cells, 293T or HeLa, were lysed with GST-pulldown buffer (50 mM Hepes pH7.4, 150 mM NaCl, 10% glycerol, 1% Triton-X100, 1.5 mM MgC12, 1 mM EGTA, 100 mM NaF, 1 mM Na3VO4, 1 mM DTT and 0.5 μg/ml Leupeptin, 1.0 μg/ml Pepstatin, 0.2 mM PMSF) and incubated were incubated with 20 μl of agarose beads containing GST-Pin1 or GST at 4° C. for 2 hr, as described previously (Ryo et al., 2001). The precipitated proteins were washed three times with wash buffer containing and subjected to SDS-PAGE. For immunoprecipitation, cells were harvested at 24 hr after transfection and lysed with NP-40 lysis buffer (10 mM Tris HCl pH7.5, 100 mM NaCl, 0.5% NP-40, 1 mM Na3VO4, 0.5 μg/ml Leupeptin, 1.0 μg/ml Pepstatin, 0.2 mM PMSF). Cell lysates were incubated for 1 hr with Protein A/G Sepahrose/mouse IgG complexes.
Three truncation mutants of p65 were generated and subjected them to the GST-pulldown assay. […]

Pin1 and p65 = test: GST-Pin1 pulldown of Xpress-tagged p65 from 293T cells; format: binding; settings: 293T cells treated with TNF-α for 3 hrs vs PBS
Procedure: (D) Enhancement of Pin1 and p65 binding by TNF-α. 293T cells expressing Xpress-tagged p65 were treated with PBS or TNF-αfor 3 hrs, followed by GST-pull down experiment and immunoblot with anti-Xpress antibody.
as §1
Pin1 binds and isomerizes specific pSer/Thr-Pro motifs in certain phosphoproteins. To explore the molecular mechanism of NF-kB activation by Pin1, it was investigated as to whether any components of NF-kB or IkBα are Pin1 substrates. […]

## siRNA: pSuppressor Neo vector encoding Pin1 specific siRNA (5′-GCCACATCACTAACGCCAGC-3′) (expressed from pSuppressor Neo vector)
NF-κB
  transcriptional activity of NF-κB-Luc: significantly suppressed the transcriptional activity of NF-κB-Luc

## CC(C)C[C@@H](C=O)NC(=O)[C@H](CC(C)C)NC(=O)[C@H](CC(C)C)NC(=O)OCc1ccccc1 [MG-132] (Cbz-Leu-Leu-Leu-aldehyde)
p65-T254A [1]
  half-life of p65-T254A protein: strikingly prolonged the half-life of p65-T254A protein
p65 [2]
  stability of p65: could be stabilized
p65 [3]
  poly-ubiquitination of p65: p65 was substantially poly-ubiquitinated
p65-T254A [4]
  stability of p65-T254A: p65-T254A was stable

## TNF-α
Pin1 and p65
  increase of Pin1-p65 binding: ~3 fold
